This assay deals with FGFR4 (Homo sapiens (Human), UniProt P22455). The assay can be described thus: FGFR Enzymatic Assay (FRET peptide phosphorylation), FGFR4. As to conditions: IC50 ratio showing FGFR4 selectivity.
[1] abbreviates: pre-incubated for 5 to 10 minutes.

FGFR4, sequence (P22455 22-802): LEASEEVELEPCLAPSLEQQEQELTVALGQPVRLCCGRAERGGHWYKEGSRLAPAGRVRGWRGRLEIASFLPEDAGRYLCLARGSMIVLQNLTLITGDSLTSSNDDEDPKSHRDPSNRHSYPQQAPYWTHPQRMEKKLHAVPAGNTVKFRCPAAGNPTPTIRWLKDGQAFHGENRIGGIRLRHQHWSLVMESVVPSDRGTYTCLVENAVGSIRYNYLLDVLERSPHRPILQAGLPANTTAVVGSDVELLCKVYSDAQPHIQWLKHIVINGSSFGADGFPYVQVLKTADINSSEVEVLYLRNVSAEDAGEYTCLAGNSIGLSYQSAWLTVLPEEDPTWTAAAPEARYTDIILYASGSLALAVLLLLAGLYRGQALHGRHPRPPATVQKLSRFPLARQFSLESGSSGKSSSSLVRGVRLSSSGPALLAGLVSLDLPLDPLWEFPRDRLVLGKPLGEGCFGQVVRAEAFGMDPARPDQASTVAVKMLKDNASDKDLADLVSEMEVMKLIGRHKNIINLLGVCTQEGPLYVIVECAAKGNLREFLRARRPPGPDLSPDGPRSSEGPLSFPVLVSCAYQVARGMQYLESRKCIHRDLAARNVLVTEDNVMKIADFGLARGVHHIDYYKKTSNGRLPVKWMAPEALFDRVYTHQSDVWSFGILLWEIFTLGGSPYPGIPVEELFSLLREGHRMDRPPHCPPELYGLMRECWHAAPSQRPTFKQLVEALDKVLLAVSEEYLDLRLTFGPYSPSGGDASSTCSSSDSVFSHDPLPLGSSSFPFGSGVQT
From the text: The enzymes were purchased from Millipore or Invitrogen.
GraphPad prism3 was used to analyze the data. The IC50 values were derived by fitting the data to the equation for a sigmoidal dose-response with a variable slope. Y=Bottom+(Top−Bottom)/(1+10^((Log IC50−X)*HillSlope)) where X is the logarithm of concentration and Y is the response.

For `C=CC(=O)Nc1cc(-c2cc3c(cn2)CN(c2c(F)c(OC)cc(OC)c2F)C(=O)C32CC2)cc(N2CCOCC2)c1` [Example 10, N-{3-[2′-(2,6-difluoro-3,5-dimethoxyphenyl)-3′-oxo-2′,3′-dihydro-1′H-spiro[cyclopropane-1,4′-[2,7]naphthyridin]-6′-yl]-5-morpholin-4-ylphenyl}acrylamide], under setting [1], the FGFR1/FGFR4 was above 100, the FGFR2/FGFR4 is on record as above 100 and the FGFR3/FGFR4 was above 100. Also, under “pre-incubated for 4 hours”, the FGFR1/FGFR4 was above 100, the FGFR2/FGFR4 is listed as above 100 and the FGFR3/FGFR4 is above 100.
With `C=CC(=O)Nc1cn(CCOC)nc1-c1cc2c(cn1)CN(c1c(F)c(OC)cc(OC)c1F)C(=O)C21CC1` [Example 32, N-(3-(2′-(2,6-difluoro-3,5-dimethoxyphenyl)-3′-oxo-2′,3′-dihydro-1′H-spiro[cyclopropane-1,4′-[2,7]naphthyridine]-6′-yl)-1-(2-methoxyethyl)-1H-pyrazol-4-yl)acrylamide], under “pre-incubated for 4 hours”, the FGFR1/FGFR4 was above 100, the FGFR2/FGFR4 was above 100 and the FGFR3/FGFR4 is above 100.
Regarding `C=CC(=O)Nc1cn(CCN2CCOCC2)nc1-c1cc2c(cn1)CN(c1c(F)c(OC)cc(OC)c1F)C(=O)C21CC1` [Example 34, N-(3-(2′-(2,6-difluoro-3,5-dimethoxyphenyl)-3′-oxo-2′,3′-dihydro-1′H-spiro[cyclopropane-1,4′-[2,7]naphthyridine]-6′-yl)-1-(2-morpholinoethyl)-1H-pyrazol-4-yl)acrylamide], under “pre-incubated for 4 hours”, the FGFR1/FGFR4 is reported as above 100, the FGFR2/FGFR4 is on record as above 100 and the FGFR3/FGFR4 was above 100.
On to `C=CC(=O)Nc1cnn(C[C@@H]2CCOC2)c1-c1cc2c(cn1)CN(c1c(F)c(OC)cc(OC)c1F)C(=O)C21CC1` [Example 28, (S)-N-(5-(2′-(2,6-difluoro-3,5-dimethoxyphenyl)-3′-oxo-2′,3′-dihydro-1′H-spiro[cyclopropane-1,4′-[2,7]naphthyridine]-6′-yl)-1-((tetrahydrofuran-3-yl)methyl)-1H-pyrazol-4-yl)acrylamide], for which, where the note is “pre-incubated for 4 hours”, the FGFR1/FGFR4 was above 100, the FGFR2/FGFR4 is on record as above 100 and the FGFR3/FGFR4 is above 100.
For `C=CC(=O)Nc1cnn(C2CCOCC2)c1-c1cc2c(cn1)CN(c1c(F)c(OC)cc(OC)c1F)C(=O)C21CC1` [Example 18, N-(5-(2′-(2,6-difluoro-3,5-dimethoxyphenyl)-3′-oxo-2′,3′-dihydro-1′H-spiro[cyclopropane-1,4′-[2,7]naphthyridine]-6′-yl)-1-(tetrahydro-2H-pyran-4-yl)-1H-pyrazol-4-yl)acrylamide], under “pre-incubated for 4 hours”, the FGFR1/FGFR4 was above 100, the FGFR2/FGFR4 is above 50 and the FGFR3/FGFR4 is reported as above 100.
As to `C=CC(=O)Nc1cnn(Cc2cnn(C)c2)c1-c1cc2c(cn1)CN(c1c(F)c(OC)cc(OC)c1F)C(=O)C21CC1` [Example 27, N-(5-(2′-(2,6-difluoro-3,5-dimethoxyphenyl)-3′-oxo-2′,3′-dihydro-1′H-spiro[cyclopropane-1,4′-[2,7]naphthyridine]-6′-yl)-1-((1-methyl-1H-pyrazol-4-yl)methyl)-1H-pyrazol-4-yl)acrylamide], where the note is “pre-incubated for 4 hours”, the FGFR1/FGFR4 is on record as above 100, the FGFR2/FGFR4 is above 100 and the FGFR3/FGFR4 is given as above 100.
Turning to `C=CC(=O)Nc1cnn(C[C@H]2CCCO2)c1-c1cc2c(cn1)CN(c1c(F)c(OC)cc(OC)c1F)C(=O)C21CC1` [Example 30, (R)-N-(5-(2′-(2,6-difluoro-3,5-dimethoxyphenyl)-3′-oxo-2′,3′-dihydro-1′H-spiro[cyclopropane-1,4′-[2,7]naphthyridine]-6′-yl)-1-((tetrahydrofuran-2-yl)methyl)-1H-pyrazol-4-yl)acrylamide], for the setting “pre-incubated for 4 hours”, the FGFR1/FGFR4 is listed as above 100, the FGFR2/FGFR4 is listed as above 100 and the FGFR3/FGFR4 is recorded as above 100.
In the case of `C=CC(=O)N1CCCC(c2cc3c(cn2)CN(c2c(F)c(OC)cc(OC)c2F)C(=O)C32CC2)C1` (stereo not drawn) [Example 8, 6′-(1-acryloylpiperidin-3-yl)-2′-(2,6-difluoro-3,5-dimethoxyphenyl)-1′H-spiro[cyclopropane-1,4′-[2,7]naphthyridin]-3′(2′H)-one], under setting [1], the FGFR1/FGFR4 is on record as above 5, the FGFR2/FGFR4 is given as above 1 and the FGFR3/FGFR4 is given as above 1. Besides, where the note is “pre-incubated for 4 hours”, the FGFR1/FGFR4 is given as above 10, the FGFR2/FGFR4 was above 2 and the FGFR3/FGFR4 is above 2.
For `C=CC(=O)Nc1ccc(C)c(-c2cc3c(cn2)CN(c2c(F)c(OC)cc(OC)c2F)C(=O)C32CC2)c1` [Example 2, N-(3-(2′-(2,6-difluoro-3,5-dimethoxyphenyl)-3′-oxo-2′,3′-dihydro-1′H-spiro[cyclopropane-1,4′-[2,7]naphthyridine]-6′-yl)-4-methylphenyl)acrylamide], under setting [1], the FGFR1/FGFR4 is above 100, the FGFR2/FGFR4 is on record as above 100 and the FGFR3/FGFR4 was above 100. Where the note is “pre-incubated for 4 hours”, the FGFR1/FGFR4 was above 100, the FGFR2/FGFR4 is reported as above 100 and the FGFR3/FGFR4 is on record as above 100.
With `C=CC(=O)Nc1cnn(CCN2CCOCC2)c1-c1cc2c(cn1)CN(c1c(F)c(OC)cc(OC)c1F)C(=O)C21CC1` [Example 19, N-(5-(2′-(2,6-difluoro-3,5-dimethoxyphenyl)-3′-oxo-2′,3′-dihydro-1′H-spiro[cyclopropane-1,4′-[2,7]naphthyridine]-6′-yl)-1-(2-morpholinoethyl)-1H-pyrazol-4-yl)acrylamide], for the setting “pre-incubated for 4 hours”, the FGFR1/FGFR4 is reported as above 100, the FGFR2/FGFR4 is on record as above 100 and the FGFR3/FGFR4 was above 100.
Turning to `C=CC(=O)Nc1cn(CC2CCOCC2)nc1-c1cc2c(cn1)CN(c1c(F)c(OC)cc(OC)c1F)C(=O)C21CC1` [Example 35, N-(3-(2′-(2,6-difluoro-3,5-dimethoxyphenyl)-3′-oxo-2′,3′-dihydro-1′H-spiro[cyclopropane-1,4′-[2,7]naphthyridine]-6′-yl)-1-((tetrahydro-2H-pyran-4-yl)methyl)-1H-pyrazol-4-yl)acrylamide], for the setting “pre-incubated for 4 hours”, the FGFR1/FGFR4 is above 100, the FGFR2/FGFR4 is given as above 100 and the FGFR3/FGFR4 is recorded as above 100.
Take `C=CC(=O)Nc1cn[nH]c1-c1cc2c(cn1)CN(c1c(F)c(OC)cc(OC)c1F)C(=O)C21CC1` [Example 14, N-(5-(2′-(2,6-difluoro-3,5-dimethoxyphenyl)-3′-oxo-2′,3′-dihydro-1′H-spiro[cyclopropane-1,4′-[2,7]naphthyridine]-6′-yl)-1H-pyrazol-4-yl)acrylamide]: under “pre-incubated for 4 hours”, the FGFR1/FGFR4 was above 100, the FGFR2/FGFR4 is given as above 100 and the FGFR3/FGFR4 is reported as above 100.
With `C=CC(=O)Nc1cnn(Cc2ccon2)c1-c1cc2c(cn1)CN(c1c(F)c(OC)cc(OC)c1F)C(=O)C21CC1` [Example 25, N-(5-(2′-(2,6-difluoro-3,5-dimethoxyphenyl)-3′-oxo-2′,3′-dihydro-1′H-spiro[cyclopropane-1,4′-[2,7]naphthyridine]-6′-yl)-1-(isoxazol-3-ylmethyl)-1H-pyrazol-4-yl)acrylamide], for the setting “pre-incubated for 4 hours”, the FGFR1/FGFR4 is recorded as above 100, the FGFR2/FGFR4 was above 100 and the FGFR3/FGFR4 is reported as above 100.
Turning to `C=CC(=O)Nc1cn(CC(=O)N(C)C)nc1-c1cc2c(cn1)CN(c1c(F)c(OC)cc(OC)c1F)C(=O)C21CC1` [Example 36, N-(3-(2′-(2,6-difluoro-3,5-dimethoxyphenyl)-3′-oxo-2′,3′-dihydro-1′H-spiro[cyclopropane-1,4′-[2,7]naphthyridine]-6′-yl)-1-(2-(dimethylamino)-2-oxoethyl)-1H-pyrazol-4-yl)acrylamide], under “pre-incubated for 4 hours”, the FGFR1/FGFR4 was above 100, the FGFR2/FGFR4 was above 100 and the FGFR3/FGFR4 is above 100.
Turning to `C=CC(=O)Nc1cc(-c2cc3c(cn2)CN(c2c(F)c(OC)cc(OC)c2F)C(=O)C32CC2)ccc1CN1CCOCC1` [Example 12, N-(5-(2′-(2,6-difluoro-3,5-dimethoxyphenyl)-3′-oxo-2′,3′-dihydro-1′H-spiro[cyclopropane-1,4′-[2,7]naphthyridine]-6′-yl)-2-(morpholinomethyl)phenyl)acrylamide], under setting [1], the FGFR1/FGFR4 is on record as above 10, the FGFR2/FGFR4 is above 1 and the FGFR3/FGFR4 is above 1. In addition, for the setting “pre-incubated for 4 hours”, the FGFR1/FGFR4 is given as above 100, the FGFR2/FGFR4 is given as above 25 and the FGFR3/FGFR4 is on record as above 10.
As for `C=CC(=O)Nc1cc(CN2CCOCC2)cc(-c2cc3c(cn2)CN(c2c(F)c(OC)cc(OC)c2F)C(=O)C32CC2)c1` [Example 11, N-[3-[2′-(2,6-difluoro-3,5-dimethoxyphenyl)-3′-oxo-2′,3′-dihydro-1′H-spiro[cyclopropane-1,4′-[2,7]naphthyridin]-6′-yl]-5-(morpholin-4-ylmethyl)phenyl]acrylamide], under setting [1], the FGFR1/FGFR4 is above 100, the FGFR2/FGFR4 was above 100 and the FGFR3/FGFR4 is given as above 100. Further, where the note is “pre-incubated for 4 hours”, the FGFR1/FGFR4 is given as above 100, the FGFR2/FGFR4 is above 100 and the FGFR3/FGFR4 is listed as above 100.
Take `C=CC(=O)Nc1cnc(C)c(-c2cc3c(cn2)CN(c2c(F)c(OC)cc(OC)c2F)C(=O)C32CC2)c1` [Example 7, N-(5-(2′-(2,6-difluoro-3,5-dimethoxyphenyl)-3′-oxo-2′,3′-dihydro-1′H-spiro[cyclopropane-1,4′-[2,7]naphthyridine]-6′-yl)-6-methylpyridin-3-yl)acrylamide]: under setting [1], the FGFR1/FGFR4 is above 100, the FGFR2/FGFR4 is recorded as above 100 and the FGFR3/FGFR4 was above 100. Under “pre-incubated for 4 hours”, the FGFR1/FGFR4 is on record as above 100, the FGFR2/FGFR4 is given as above 100 and the FGFR3/FGFR4 is listed as above 100.
In the case of `C=CC(=O)Nc1ccc(C)c(-c2ncc3c(n2)C2(CC2)C(=O)N(c2c(F)c(OC)cc(OC)c2F)C3)c1` [Example 37, N-(3-(6′-(2,6-difluoro-3,5-dimethoxyphenyl)-7′-oxo-6′,7′-dihydro-5′H-spiro[cyclopropane-1,8′-pyrido[4,3-d]pyrimidine]-2′-yl)-4-methylphenyl)acrylamide], where the note is “pre-incubated for 4 hours”, the FGFR1/FGFR4 is on record as above 100, the FGFR2/FGFR4 is listed as above 100 and the FGFR3/FGFR4 was above 100.

For the origin of these results see US10016438B2, “Bicyclic heterocycles as FGFR4 inhibitors” (Incyte Corporation, priority 2015, dated 2018).
